The data set in a line: gradient 5% acetonitrile 3 min, to 50% in 2 min, to 85% in 15 min, held 3 min, 100 µL/min. Conditions: column: Zorbax Extend-C18 2.1 x 50 mm; eluents: water / acetonitrile, 0.1% formic acid. A digest of the protocol:
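Using water and acetonitrile that each contained 0.1% formic acid, mixtures of ~100 pure standards were separated at 100 μL/min on a Zorbax Extend-C18 column (2.1 × 50 mm, 1.8 μm). The HPLC fed a quadrupole time-of-flight mass spectrometer working in positive and negative ionization mode, with dead and dwell volumes of 40 μL and 900 μL. Data were acquired over 3 months. Retention time was read from computationally picked adduct peaks after manual inspection of each.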
`CCOC(=O)c1c(S(=O)(=O)N2CCC(C(=O)Nc3ccc(Cl)cc3)CC2)c(C)n(C)c1C`: the RP-LC retention time was found to be 913 s.
Take `Cc1cc(C)cc(N2CCC(NC(=O)c3ccccc3)C2=O)c1` (centres undefined): the RP-LC retention time was determined as 857 s.
The figure for `O=c1c2nc(-c3ccc(F)cc3F)cn2ccn1-c1ccc(Cl)cc1` is 921 s; for `COc1cccc(-c2nc(Cn3ccn4nc(-c5ccccc5)cc4c3=O)c(C)o2)c1OC` it is 1020 s.
Under `C=CCOC(=O)COc1ccc2c(=O)c(-c3ccc(Cl)cc3)coc2c1` stands 1020 s.
The figure for `Cc1nnc(-c2cc(NC(=O)c3cc(F)ccc3Cl)c(C)s2)o1` is 955 s; for `Cc1c(-c2nnc(C3CCC3)o2)c(S(=O)(=O)Nc2cccc(Cl)c2F)c(C)n1C` it is 1060 s.
`CCN(C(=O)C1CCCN1S(=O)(=O)c1cc2c(cc1Cl)NC(=O)CO2)c1ccccc1` (centres undefined) returned an RP-LC retention time of 836 s.
The figure for `Cc1ccc(CNC(=O)c2ccc3c(c2)N(C)C(=O)c2ccccc2O3)cc1` is 931 s.
The figure for `Cc1noc(C)c1CCC(=O)NCCOc1ccc2nnc(-c3cccc(F)c3)n2n1` is 633 s; for `CCN1CCCCc2cc(C(=O)NCCC3CCN(C(C)C)CC3)sc21` it is 680 s; for `CN(CC1(C)CCOCC1)S(=O)(=O)c1cn(C)cn1` it is 615 s.
The figure for `CC(C)c1nc2nccc(-c3ccc(F)cc3)n2n1` is 831 s; for `CCc1nc2onc(C)c2c(=O)n1CC(=O)NCCCc1ccccc1` it is 844 s; for `Cc1ccc(C(CC(=O)N2CCN(c3ccccn3)CC2)N2Cc3ccccc3C2=O)cc1` (centres undefined) it is 655 s.
In turn, `CCn1ccnc1N1CCN(C(=O)COc2ccc(Cl)cc2Cl)CC1` returned an RP-LC retention time of 593 s.
The figure for `CCOC(=O)c1nc(Nc2ccc(F)c(Cl)c2)c2ccccc2n1` is 971 s; for `CC(C)Cc1csc(-c2csc(S(=O)(=O)NCc3ccccc3Cl)c2)n1` it is 1330 s.
The figure for `COCCCNC(=O)c1ccc2c(c1)N(Cc1ccccc1)C(=O)CO2` is 732 s; for `COCCNC(=O)NC1CCN(C2=NS(=O)(=O)C(c3cccc(Cl)c3)=C2C)CC1` it is 718 s; for `COc1ccc(N2CCN(c3cc(SCC(=O)Nc4ccc(Cl)cc4F)ncn3)CC2)cc1` it is 1090 s.
Under `CC(C)c1ccc(NC(=O)CN2C(=O)C(C(=O)N3CCCC3)Sc3ccccc32)cc1` (centres undefined) stands 1140 s; under `O=c1ccc(-c2nc(-c3ccc(F)cc3)no2)nn1Cc1ccccc1F`, 1070 s; under `Cc1nc(C(=O)N2CCCn3ccnc3C2C(C)C)co1` (centres undefined), 556 s.
On to `O=C(Cn1cnc2c(sc3nc(-c4ccccc4)ccc32)c1=O)NC1CCCC1`, for which the RP-LC retention time turned out to be 906 s.
Under `Cn1nc(-c2ccc(F)cc2)cc1C(=O)NCc1n[nH]c(=O)c2ccccc12` stands 694 s; under `O=C(Cn1nc(Cc2cccnc2)c2ccccc2c1=O)NCC1COc2ccccc2O1` (centres undefined), 640 s; under `O=C(c1c[nH]c2ncccc12)N1CCCC1`, 589 s.
The figure for `CCC(=O)N(C1CCOCC1)C1CCN(S(=O)(=O)c2ccccc2Cl)CC1` is 840 s; for `Cc1ccc(C(=O)N2CCN(c3nnc4cccc(C)n34)CC2)s1` it is 659 s.
The figure for `O=S(=O)(c1ccc2c(c1)OCCO2)N1CCC[C@H]1c1nc(-c2ccc(F)cc2)n[nH]1` is 799 s; for `O=C(CN1C(=O)C2CCCCN2c2ccc(C(=O)N3CCCCC3)cc21)NC1CCCC1` (centres undefined) it is 828 s.
For the compound `Cc1cccc(C(=O)NCCc2c[nH]c3ccc(C)cc23)c1`, the RP-LC retention time was 890 s.
Under `Cc1ccc(C(=O)NCc2nc(-c3ccc4c(c3)nnn4C)no2)cc1` stands 731 s; under `COc1cc([C@@H]2c3cc4c(cc3[C@H](O)[C@@H](CO)[C@@H]2C(=O)NCCCN(C)C2CCCCC2)OCO4)cc(OC)c1OC`, 573 s; under `COCCNc1c(-c2ccc(F)cc2)nc2sc(C(=O)NCc3ccccn3)c(C)n12`, 661 s.
Under `CC(=O)Nc1c(C)noc1/C=C/c1ccc(S(=O)(=O)N2CCC(C)CC2)s1` stands 869 s; under `Cc1ccc(NC(=O)NCC2CCOCC2)c(C)c1`, 713 s; under `CCc1ccc(-c2cn3ccn(-c4ccc(OC)c(OC)c4)c(=O)c3n2)cc1`, 840 s.
Turning to `CCCN1C(=O)COc2cc(-c3noc(C(=O)NCC4CCCN4CC)n3)ccc21` (centres undefined), the RP-LC retention time was found to be 645 s.
The figure for `Cc1cnc(-c2cc(N3CCN(C(=O)CCS(C)(=O)=O)CC3)ncc2Cl)c(C)c1` is 728 s; for `CNc1cc(NS(=O)(=O)c2ccc(N)cc2)nc(NC)n1` it is 370 s; for `COc1ccc(N2CC(c3nnc(NC(=O)COc4ccc(C)cc4)o3)CC2=O)cc1` (centres undefined) it is 742 s.
The figure for `Cc1ccc(-c2nc3ccccn3c2NC(=O)Nc2cc(F)ccc2F)cc1` is 707 s.
The figure for `O=[N+]([O-])c1ccc(S(=O)(=O)N2CCN(c3ccc(NCC4CCCO4)nn3)CC2)cc1` (centres undefined) is 568 s.
On to `Cc1ccc2c(c1)C(c1ccccc1)N(C(=O)c1ccc([N+](=O)[O-])cc1)CC(=O)N2` (centres undefined), for which the RP-LC retention time was 834 s.
On to `CCOC(=O)Cc1ccc(NC(=O)N2CCCC2c2cccs2)cc1` (centres undefined), for which the RP-LC retention time was determined as 921 s.
The compound `COC(=O)c1cccc(NC(=O)C2CCN(c3c(C#N)cnc4ccccc34)CC2)c1` came in with an RP-LC retention time of 675 s.
The figure for `Cc1nc(N2CCOCC2)c2c(C(=O)Nc3cc(Cl)ccc3C)c(C)oc2n1` is 869 s; for `Cc1cc(C)cc(Oc2nccn3c(=O)n(CC(=O)Nc4cccc(C(C)C)c4)nc23)c1` it is 1080 s.
The figure for `Cc1noc(Cn2cnc3c4ccccc4n(CC(=O)NC4CCCC4)c3c2=O)n1` is 744 s.
Consider `CCOC(=O)c1cn(Cc2ccc(C)cc2)c2nc(C)ccc2c1=O`, for which the RP-LC retention time turned out to be 861 s.
Under `Cc1ccc(-c2nc(Cn3nnc(C(=O)NCc4ccc(C)o4)c3C)c(C)o2)cc1` stands 1010 s; under `CCC(Oc1ccc(=O)n(-c2ccc(F)cc2)n1)C(=O)NCc1ccc2c(c1)OCO2` (centres undefined), 752 s.
For `Cc1cc(N2CCN([C@@H]3CN[C@H](C(=O)N4CCSC4)C3)CC2)n(-c2ccccc2)n1`, the RP-LC retention time was determined as 653 s.
Under `Nc1ccc2c(c1)S(=O)(=O)c1cc(N)ccc1-2` stands 635 s; under `CN1C(=O)Cc2cc(S(=O)(=O)NCc3ccc4c(c3)CCN4C(=O)c3ccc(Cl)cc3)ccc21`, 867 s.
The figure for `CCN1C(=O)C2CC3(CCN(C(=O)C4CCCCC4)CC3)CN2C1=O` (centres undefined) is 738 s.
The compound `CC(C)CN1CCn2cc(S(=O)(=O)NCc3ccc(F)c(Cl)c3)cc2C1=O` registered an RP-LC retention time of 855 s.
The figure for `O=C(O)Cc1sc(Nc2ccccc2Cl)nc1-c1ccccc1` is 942 s; for `CCOC(=O)c1noc2ncnc(Nc3ccccc3C)c12` it is 1010 s.
Under `Cc1c(C2CCN(C(=O)c3ccc4c(c3)OCO4)CC2)noc1N` stands 663 s; under `O=C(NC1CCN(c2cc(-c3ccccc3)[nH]n2)C1)c1ccccc1Cl` (centres undefined), 692 s.
The figure for `CCN1CCN(c2nc3c(s2)CN(C(=O)CCC(C)C)CC3)CC1` is 614 s; for `CCc1ccc(NC(=O)Cn2ccc3ccc(-c4nnc(C)o4)cc32)cc1` it is 885 s; for `O=C(NCCc1ccco1)C1CCN(Cc2cc3ccccc3n2Cc2ccccc2Cl)CC1` it is 841 s.
In the case of `COc1ccc(-n2nnc(-c3nc(-c4cccc(OC)c4)cs3)c2N)cc1`, the RP-LC retention time came out at 1070 s.
The figure for `CCNC(=O)C1CCCN(c2nc3ncn(CC(=O)NC4CCCC4)c(=O)c3s2)C1` (centres undefined) is 637 s.
For the compound `O=C1NCCCCCN(C(=O)c2ccco2)[C@@H]2C[C@@H](C(=O)N3CCc4ccccc4C3)C[C@H]12`, the RP-LC retention time is 752 s.
`Cc1nc2ccn(Cc3cccnc3)c(=O)c2cc1C(=O)NCCC(C)C` came in with an RP-LC retention time of 605 s.
The figure for `COCC1(O)CCOC2(CCN(Cc3ccc(C#N)cc3)CC2)C1` (centres undefined) is 578 s; for `COCCN1C(=O)c2ccccc2C(C(=O)NCc2ccccc2OC)C12CCCC2` (centres undefined) it is 855 s.
The figure for `Cc1cc(C)n(CC(=O)NCCc2c[nH]c3ccccc23)c(=O)n1` is 570 s; for `CCCn1nnc2cc(-c3noc(C4CC(=O)N(c5ccc(C)c(C)c5)C4)n3)ccc21` (centres undefined) it is 1020 s; for `COC(=O)c1ccccc1NC(=O)CN1CCC(c2nc(-c3cccc(F)c3)no2)CC1` it is 738 s.
The figure for `CC(=O)N1CCc2cc(CNS(=O)(=O)c3ccccc3)ccc21` is 691 s.
`CCc1ccc(C2=C(C)C(N3CCCN(C(=O)c4ccccc4)CC3)=NS2(=O)=O)cc1` had an RP-LC retention time of 896 s.
The figure for `CN1C2CCC1CC(OC(=O)C(CO)c1ccccc1)C2` (centres undefined) is 638 s; for `O=C(NCCc1ccc(F)cc1)C1CC(=O)N(CCc2c[nH]c3ccc(Cl)cc23)C1` (centres undefined) it is 830 s.

The values are drawn from the METLIN SMRT retention time set (Domingo-Almenara et al. 2019).
